{"source": "patent US20090274698A1", "about": "“Combination anti-cancer therapy” (priority 2007, published 2009)", "key": {"[1]": {"test_system": "tumor cell lines", "assay": "Anti-proliferative activity across tumor cell lines (statement of the description)", "format": "cell-based"}, "[2]": {"test_system": "pAkt", "assay": "Western blot of pAkt in a panel of cell lines from various tumor types", "format": "cell-based, human", "protocol": "(§1) Cell extracts were prepared by detergent lysis (50 mM Tris-HCl, pH 8.0, 150 mM NaCl, 1% NP-40, 0.5% sodium deoxycholate, 0.1% SDS, containing protease inhibitor (P8340, Sigma, St. Louis, Mo.) and phosphatase inhibitor (P5726, Sigma, St. Louis, Mo.) cocktails. The soluble protein concentration was determined by micro-BSA assay (Pierce, Rockford Ill.). Protein immunodetection was performed by electrophoretic transfer of SDS-PAGE separated proteins to nitrocellulose, incubation with antibody, and chemiluminescent second step detection (PicoWest; Pierce, Rockford, Ill.). The antibodies included: phospho-Akt(473), phospho-Akt(308), and total Akt. All antibodies were obtained from Cell Signaling Technology, Inc. (Danvers, Mass.). For analysis of an agent's effect on the phosphorylation of downstream signaling proteins, cell lines were grown to approximately 70% confluency, at which time the indicated agent was added at the indicated concentration, and cells were incubated at 37° C. for 24 hours. The media was removed, cells were washed two times with PBS, and cells were lysed as previously described."}, "[3]": {"test_system": "pAkt (Ser 473) in Ovcar3 cells", "assay": "Western blot of pAkt (Ser 473) in Ovcar3 cells (FIG. 9, 10)", "format": "cell-based, human", "conditions": "Ovcar3, 24 hours; 10 nM rapamycin, 10 μM irinotecan", "excerpt": "FIG. 9. Compound B inhibits irinotecan-induced Akt phosphorylation and enhances irinotecan-induced apoptosis in ovarian tumor cells. […] Phospho-Akt was detected using an antoibody specific to Serine 473. […] Apoptosis is expressed as the fold increase in induction relative to DMSO-treated cells.\nFIG. 10. Compound B inhibits doxorubicin-induced Akt phosphorylation and enhances doxorubicin-induced apoptosis in ovarian tumor cells. […] Phospho-Akt was detected using an antibody specific to Serine 473. […] Apoptosis is expressed as the fold increase in induction relative to DMSO-treated cells."}, "[4]": {"test_system": "pAkt (serine 473) in ovarian tumor cells", "assay": "Western blot of pAkt (serine 473) in ovarian cell lines, gemcitabine study (FIG. 11A)", "format": "cell-based, human", "conditions": "gemcitabine 1 μM, Compound B 10 μM, rapamycin 10 nM, 24 hours", "protocol": "as §1"}, "[5]": {"test_system": "pAkt-S473 in ovarian carcinoma cell lines (Ovcar3, SKov3, MDAH 2774, CaOV3)", "assay": "Western blot of phospho-Akt(S473) in ovarian carcinoma cell lines, cisplatin study (FIG. 8)", "conditions": "10 nM rapamycin, 20 μM Compound A, 30 μM cisplatin, 24 hours", "protocol": "Band density was determined and relative levels of phospho-Akt(S473) are expressed graphically relative to DMSO-treated control lysate. Four ovarian cell lines were assayed (A) Ovcar3, (B) SKov3, (C) MDAH 2774, (D) CaOV3.\nas §1"}, "[6]": {"test_system": "MDA-MB-231 cells", "assay": "Apoptosis (Caspase 3/7 Glo) in MDA-MB-231 cells", "format": "cell-based, human", "conditions": "MDA-MB-231, 24 hours, Caspase 3/7 activity", "procedure": "Apoptosis was measured 24 hrs after treatment. […] Measurements were made 24 hours after treatments, and apoptosis was evaluated by fold induction in Caspase 3/7 activity."}, "[7]": {"test_system": "pAkt (Ser 473) in MDA-MB-231 tumor cells", "assay": "Western blot of pAkt (Ser 473) in MDA-MB-231 tumor cells", "conditions": "MDA-MB-231, 24 hours", "protocol": "Cells were treated for 24 hours prior to harvesting lysates. Ctrl=control.\nas §1"}}}
{"smiles": "CO[C@H]1C[C@@H]2CC[C@@H](C)[C@@](O)(O2)C(=O)C(=O)N2CCCC[C@H]2C(=O)O[C@H]([C@H](C)C[C@@H]2CC[C@@H](O)[C@H](OC)C2)CC(=O)[C@H](C)/C=C(\\C)[C@@H](O)[C@@H](OC)C(=O)[C@H](C)C[C@H](C)/C=C/C=C/C=C/1C", "note": "[Rapamycin]", "values": [{"measurement": "cell lines in a given tumor type that are insensitive (anti-proliferative activity)", "setting": "[1]", "value": "approximately 50%"}, {"measurement": "tumor cells tested in which pAKT is induced", "setting": "[2]; Table 2", "value": "~62", "unit": "%"}, {"measurement": "cancer cell lines in which pAkt (S473) is inhibited", "setting": "[2]; statement of the description", "value": "~20", "unit": "%"}, {"measurement": "cell lines in which treatment increases pAkt (S473)", "setting": "[2]; statement of the description", "value": "~65", "unit": "%"}]}
{"smiles": "CCc1c2c(nc3ccc(OC(=O)N4CCC(N5CCCCC5)CC4)cc13)-c1cc3c(c(=O)n1C2)COC(=O)[C@]3(O)CC", "note": "[irinotecan]", "values": [{"measurement": "effect on pAkt levels, single agent", "setting": "[3]", "value": "causes an induction in pAkt levels"}]}
{"smiles": "Nc1ccn([C@@H]2O[C@H](CO)[C@@H](O)C2(F)F)c(=O)n1", "note": "[gemcitabine]", "values": [{"measurement": "effect on Akt phosphorylation (serine 473), single agent", "setting": "[4]", "value": "increased Akt phosphorylation on serine 473"}]}
{"smiles": "N.N.[Cl][Pt][Cl]", "note": "[cisplatin]", "values": [{"measurement": "effect on pAkt-S473, single agent", "setting": "[5]", "value": "promotes an increase in Akt phosphorylation"}]}
{"smiles": "COc1cccc2c1C(=O)c1c(O)c3c(c(O)c1C2=O)C[C@@](O)(C(=O)CO)C[C@@H]3O[C@H]1C[C@H](N)[C@H](O)[C@H](C)O1", "note": "[doxorubicin]", "values": [{"measurement": "induction in apoptosis, single agent", "setting": "[6]", "value": "no significant induction in apoptosis"}, {"measurement": "effect on pAkt-S473, single agent", "setting": "[7]", "value": "promotes an increase in Akt phosphorylation"}]}
